Drawing on patent US11591341B2 (ALIGOS THERAPEUTICS, INC., priority 2019, dated 2023), this text covers EC50 for 23 compounds.

As a reminder, the EC50 is the midpoint of the concentration-response curve.

The test deals with HBV. The test is described as follows: HBV-DNA Antiviral Assay Using HepG2.117 Cells (intracellular HBV DNA by qPCR). In kind it is cell-based, hepatitis B virus (genotype D). To be noted: Hepatitis B virus, HepG2.117. The procedure, abridged:
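HepG2.117 cells (genotype D HBV, Tet-off) were induced by doxycycline withdrawal and treated for 3 days with 9 concentrations in 4-fold dilution, 2% DMSO final. Intracellular HBV DNA was measured by qPCR against a standard curve, with ATPlite viability read in parallel. EC50, EC90 and CC50 came from fits against the DMSO control.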
For orientation: Real-time PCR tracks product formation cycle by cycle.
In the case of `COc1ccc([C@H](C)NC(=O)c2c3n(c(=O)n2-c2ccc(OC4CC4)cc2)CC(C)N(C(=O)c2ccc(Br)c(Cl)c2)C3)cc1` (mixture of isomers) [Example 437, (6RS)-7-(4-bromo-3-chloro-benzoyl)-2-[4-(cyclopropoxy)phenyl]-N-[(1S)-1-(4-methoxyphenyl)ethyl]-6-methyl-3-oxo-6,8-dihydro-5H-imidazo[1,5-a]pyrazine-1-carboxamide], the EC50 fell in the range of 500 to 5000 nM.
The figure for `CC1Cn2c(c(C(=O)NCc3ccccc3-n3cc(F)cn3)n(-c3ccc(OC4CC4)cc3)c2=O)CN1C(=O)c1ccc(Br)c(Cl)c1` (racemic) [Example 440, rac-(6S)-7-(4-bromo-3-chloro-benzoyl)-2-[4-(cyclopropoxy)phenyl]-N-[[2-(4-fluoropyrazol-1-yl)phenyl]methyl]-6-methyl-3-oxo-6,8-dihydro-5H-imidazo[1,5-a]pyrazine-1-carboxamide] is < 100 nM; for `C[C@@H]1Cn2c(c(C(=O)NCc3ccccc3-n3cc(F)cn3)n(-c3ccc(OC4CC4)cc3)c2=O)CN1C(=O)c1ccc(Br)c(Cl)c1` (racemic) [Example 441, rac-(6R)-7-(4-bromo-3-chloro-benzoyl)-2-[4-(cyclopropxy)phenyl]-N-[[2-(4-fluoropyrazol-1-yl)phenyl]methyl]-6-methyl-3-oxo-6,8-dihydro-5H-imidazo[1,5-a]pyrazine-1-carboxamide] it is 100 to 500 nM; for `COc1ccc([C@@H](C)NC(=O)c2c3n(c(=O)n2-c2ccc(OC4CC4)cc2)CC(C)N(C(=O)c2ccc(Br)c(Cl)c2)C3)cc1` (mixture of isomers) [Example 449, (6RS)-7-(4-bromo-3-chloro-benzoyl)-2-[4-(cyclopropoxy)phenyl]-N-[(1R)-1-(4-methoxyphenyl)ethyl]-6-methyl-3-oxo-6,8-dihydro-5H-imidazo[1,5-a]pyrazine-1-carboxamide] it is 500 to 5000 nM.
With `COc1ccc([C@@H](C)NC(=O)c2c3n(c(=O)n2-c2ccc(OC4CC4)cc2)C[C@H](C)N(C(=O)c2ccc(Br)c(Cl)c2)C3)cc1` (racemic) [Example 450, (6SR)-7-(4-bromo-3-chloro-benzoyl)-2-[4-(cyclopropoxy)phenyl]-N-[(1R)-1-(4-methoxyphenyl)ethyl]-6-methyl-3-oxo-6,8-dihydro-5H-imidazo[1,5-a]pyrazine-1-carobxamide] the figure was < 100 nM; with `CC1Cn2c(c(C(=O)NCc3ccccc3-c3ncccn3)n(-c3ccc(OC4CC4)cc3)c2=O)CN1C(=O)c1ccc(Br)c(C#N)c1` (racemic) [Example 451, rac-(6R)-7-(4-bromo-3-cyano-benzoyl)-2-[4-(cyclopropoxy)phenyl]-6-methyl-3-oxo-N-[(2-pyrimidin-2-ylphenyl)methyl]-6,8-dihydro-5H-imidazo[1,5-a]pyrazine-1-carboxamide], 100 to 500 nM; with `C[C@H]1Cn2c(c(C(=O)NCc3ccccc3-c3ncccn3)n(-c3ccc(OC4CC4)cc3)c2=O)CN1C(=O)c1ccc(Br)c(C#N)c1` (racemic) [Example 452, rac-(6S)-7-(4-bromo-3-cyano-benzoyl)-2-[4-(cyclopropoxy)phenyl]-6-methyl-3-oxo-N-[(2-pyrimidin-2-ylphenyl)methyl]-6,8-dihydro-5H-imidazo[1,5-a]pyrazine-1-carboxamide], < 100 nM.
The figure for `C[C@@H](NC(=O)c1c2n(c(=O)n1-c1ccccc1)CCN(C(=O)c1ccc(Br)c(Cl)c1)C2)c1ccccc1` (stereo in doubt) [Example 37, 7-(4-bromo-3-chloro-benzoyl)-3-oxo-2-phenyl-N-[rac-(1R)-1-phenylethyl]-6,8-dihydro-5H-imidazo[1,5-a]pyrazine-1-carboxamide] is 500 to 5000 nM.
As to `C[C@H](NC(=O)c1c2n(c(=O)n1-c1ccccc1)CCN(C(=O)c1ccc(Br)c(Cl)c1)C2)c1ccccc1` (stereo in doubt) [Example 38, 7-(4-bromo-3-chloro-benzoyl)-3-oxo-2-phenyl-N-[rac-(1S)-1-phenylethyl]-6,8-dihydro-5H-imidazo[1,5-a]pyrazine-1-carboxamide], the EC50 fell in the range of 500 to 5000 nM.
The figure for `COc1ccc(-n2c(C(=O)N[C@H](C)c3ccccc3)c3n(c2=O)CCN(C(=O)c2ccc(Cl)c(Cl)c2)C3)cc1` (stereo in doubt) [Example 68, 7-(3,4-dichlorobenzoyl)-2-(4-methoxyphenyl)-3-oxo-N-[rac-(1R)-1-phenylethyl]-6,8-dihydro-5H-imidazo[1,5-a]pyrazine-1-carboxamide] is 500 to 5000 nM; for `COc1ccc(-n2c(C(=O)N[C@@H](C)c3ccccc3)c3n(c2=O)CCN(C(=O)c2ccc(Br)c(Cl)c2)C3)cc1` (stereo in doubt) [Example 69, 7-(4-bromo-3-chloro-benzoyl)-2-(4-methoxypehnyl)-3-oxo-N-[rac-(1S)-1-phenylethyl]-6,8-dihydro-5H-imidazo[1,5-a]pyrazine-1-carboxamide] it is 100 to 500 nM.
The figure for `COc1ccc(-n2c(C(=O)N[C@@H](C)c3ccccc3)c3n(c2=O)CCN(C(=O)c2ccc(Cl)c(Cl)c2)C3)cc1` (stereo in doubt) [Example 70, 7-(3,4-dichlorobenzoyl)-2-(4-methoxyphenyl)-3-oxo-N-[rac-(1S)-1-phenylethyl]-6,8-dihydro-5H-imidazo[1,5-a]pyrazine-1-carboxamide] is 500 to 5000 nM; for `COc1ccc([C@@H](C)NC(=O)c2c3n(c(=O)n2-c2ccc(OC)cc2)CCN(C(=O)c2ccc(Br)c(Cl)c2)C3)cc1` (stereo in doubt) [Example 72, 7-(4-bromo-3-chloro-benzoyl)-2-(4-methoxyphenyl)-3-oxo-N-[rac-(1R)-1-(4-methoxyphenyl)ethyl]-6,8-dihydro-5H-imidazo[1,5-a]pyrazine-1-carboxamide] it is 500 to 5000 nM; for `COc1ccc([C@H](C)NC(=O)c2c3n(c(=O)n2-c2ccc(OC)cc2)CCN(C(=O)c2ccc(Br)c(Cl)c2)C3)cc1` (stereo in doubt) [Example 73, 7-(4-bromo-3-chloro-benzoyl)-2-(4-methoxyphenyl)-3-oxo-N-[rac-(1S)-1-(4-methoxyphenyl)ethyl]-6,8-dihydro-5H-imidazo[1,5-a]pyrazine-1-carboxamide] it is < 100 nM.
The figure for `COc1ccc(-n2c(C(=O)N[C@H](C)c3ccccc3)c3n(c2=O)CCN(C(=O)c2ccc(Br)c(Cl)c2)C3)cc1` (stereo in doubt) [Example 82, 7-(4-bromo-3-chloro-benzoyl)-2-(4-methoxyphenyl)-3-oxo-N-[rac-(1R)-1-phenylethyl]-6,8-dihydro-5H-imidazo[1,5-a]pyrazine-1-carboxamide] is 100 to 500 nM.
Take `C[C@@H]1CN(Cc2ccccc2)C(=O)c2c3n(c(=O)n2C1)CCN(C(=O)c1ccc(Br)c(Cl)c1)C3` (stereo in doubt) [Example 97, rac-(11R)-13-benzyl-4-(4-bromo-3-chloro-benzoyl)-11-methyl-4,7,9,13-tetrazatricyclo[7.5.0.0^2,7]tetradec-1-ene-8.14-dione]: the concentration for a half-maximal effect (EC50) is 500 to 5000 nM.
With `C[C@H]1CN(Cc2ccccc2)C(=O)c2c3n(c(=O)n2C1)CCN(C(=O)c1ccc(Br)c(Cl)c1)C3` (stereo in doubt) [Example 98, rac-((1S)-13-benzyl-4-(4-bromo-3-chloro-benzoyl)-11-methyl-4,7,9,13-tetrazatricyclo[7.5.0.0^2,7]tetradec-1-ene-8.14-dione] the figure was 500 to 5000 nM; with `COc1ccc(-n2c(C(=O)N[C@@H]3CCc4cc(OC)ccc43)c3n(c2=O)CCN(C(=O)c2ccc(Br)c(Cl)c2)C3)cc1` (stereo in doubt) [Example 99, 7-(4-bromo-3-chloro-benozyl)-2-(4-methoxyphenyl)-3-oxo-N-[rac-(1R)-5-methoxyindazin-1-yl]-6,8-dihydro-5H-imidazo[1,5-a]pyrazine-1-carboxamide], 500 to 5000 nM; with `COc1ccc(-n2c(C(=O)N[C@H]3CCc4cc(OC)ccc43)c3n(c2=O)CCN(C(=O)c2ccc(Br)c(Cl)c2)C3)cc1` (stereo in doubt) [Example 100, 7-(4-bromo-3-chloro-benzoyl)-2-(4-methoxyphenyl)-3-oxo-N-[rac-(1S)-5-methoxyindazin-1-yl]-6,8-dihydro-5H-imidazo[1,5-a]pyrazine-1-carboxamide], 100 to 500 nM.
With `C[C@H](NC(=O)c1c2n(c(=O)n1C)CCN(C(=O)c1ccc(Br)c(Cl)c1)C2)c1ccccc1` (stereo in doubt) [Example 112, 7-(4-bromo-3-chloro-benzoyl)-2-methyl-3-oxo-N-[rac-(1S)-1-phenylethyl]-6,8-dihydro-5H-imidazo[1,5-a]pyrazine-1-carboxamide] the figure was > 5000 nM.
As to `C[C@@H](NC(=O)c1c2n(c(=O)n1C)CCN(C(=O)c1ccc(Br)c(Cl)c1)C2)c1ccccc1` (stereo in doubt) [Example 113, 7-(4-bromo-3-chloro-benzoyl)-2-methyl-3-oxo-N-[rac-(1R)-1-phenylethyl]-6,8-dihydro-5H-imidazo[1,5-a]pyrazine-1-carboxamide], the 50% effective concentration (EC50) lay in the range of 500 to 5000 nM.
Turning to `C[C@H](NC(=O)c1c2n(c(=O)n1-c1ccc(OCC(F)(F)F)cc1)CCN(C(=O)c1ccc(Br)c(Cl)c1)C2)c1ccccc1` (stereo in doubt) [Example 127, 7-(4-bromo-3-chloro-benzoyl)-3-oxo-N-[rac-(1S)-1-phenylethyl]-2-[4-(2,2,2-trifluoroethoxy)phenyl]-6,8-dihydro-5H-imidazo[1,5-a]pyrazine-1-carboxamide], the EC50 was in the range of 500 to 5000 nM.
For `C[C@@H](NC(=O)c1c2n(c(=O)n1-c1ccc(OCC(F)(F)F)cc1)CCN(C(=O)c1ccc(Br)c(Cl)c1)C2)c1ccccc1` (stereo in doubt) [Example 128, 7-(4-bromo-3-chloro-benzoyl)-3-oxo-N-[rac-(1R)-1-phenylethyl]-2-[4-(2,2,2-trifluoroethoxy)phenyl]-6,8-dihydro-5H-imidazo[1,5-a]pyrazine-1-carboxamide], the EC50 was in the range of 100 to 500 nM.
